Counter-ions that a name gives are not always drawn.
Tested on: patients suffering from Chronic non-cancer pain (CNCP)
Experiment: Human clinical trial, pain scored by visual analogue scale (VAS)
Format: in vivo
Settings: mean ± SD, scale 0-100 mm
Source text: The present inventions disclosed in this specification further include a method of treating pain and pain related conditions. This was established using a well controlled human clinical trial. The method of treating pain and pain related conditions by using a combination disclosed by this invention has been established in a long-term controlled clinical evaluation. A typical study determined the efficacy of tramadol and meloxicam as monotherapy and a combination of meloxicam and a slow release tramadol for the treatment of pain and pain related conditions
• Tramadol hydrochloride: Generic Tramadol Hydrochloride tablets 50 mg, • Meloxicam: Generic Meloxicam tablets 7.5 mg • Slow Release Tramadol Hydrochloride: a) Example 1, b) Ultram ER 100 mg
The administered dosage comprised either tramadol hydrochloride (100 mg) or meloxicam 7.5 mg or a combination of meloxicam (7.5 mg) and slow release tramadol hydrochloride (100 mg) selected from Treatments D or E or a combination of meloxicam 5 mg and a slow release tramadol 100 mg (Treatment F) was administered once a day to the patients in a long-term clinical trial.
140 patients were used in a clinical trial were suffering from Chronic non-cancer pain (CNCP), defined as pain for longer than 6 months, including neuropathic pain, osteoarthritis, rheumatoid arthritis, fibromyalgia, and back and musculoskeletal pain were included in the clinical trial.
Those patients with migraines, dental pain, abdominal pains (from chronic pancreatitis, kidney stones, etc.) and ischemic pain from vascular disease were excluded because they are usually not classified as CNCP. Patients with history of addiction (alcohol or drugs) were excluded from the trials
Randomization was performed with computer-generated random numbers in blocks of 10. Randomization codes of the monotherapy or combination therapy treatments were placed in sequentially numbered, opaque, sealed envelopes in the biopsy center. When a patient was recruited and consented, the next numbered envelope was opened by the operator, who had no knowledge of the randomization code before the treatment
Pain was assessed using a visual analogue scale (VAS) graded from 0-100 mm. Pain scoring was performed every three hours after drug administration for a total of 24 hours.
The patients were taught with a standard method by the physician how to use a VAS scoring from 0 to 100 mm to grade the intensity of pain experienced during the treatment. On that scale, the left endpoint, 0, was defined as no pain and the right endpoint 100, as the worst pain the patient could imagine. There were no further marks on the line. The intensity of pain was indicated by the distance in millimeters from the left end. Patients were asked to grade the pain intensity immediately after the administration of drugs and every three hour after for 24 hours by drawing a vertical line over each VAS line. The doctors who prescribed the medicines obtained all the VAS forms for that specific patient.
Data are expressed as means ±SD. Differences in VAS were analyzed with use of the unpaired Student t test and differences in pain score reductions between the two groups were analyzed with use of the Mann-Whitney U test for the median difference. Similar statistical tests were used for between group comparisons of other outcome variables as appropriate. A two tailed P value of less than. […] SAS software was used for the statistical analysis.
We considered that a clinically significant benefit of using meloxicam and slow release tramadol would be a reduction in the pain score (VAS) of at least 15% compared to the monotherapy with either tramadol hydrochloride or naproxen or meloxicam or placebo. Alternatively, the dose reduction of at least 15% of either NSAID or tramadol when used as combination over the monotherapy as significant benefit

| SMILES | Pain scored by VAS (VAS time 0 hours) | Pain scored by VAS (VAS time 3 hours) | Pain scored by VAS (VAS time 6 hours) | Pain scored by VAS (VAS time 9 hours) | Pain scored by VAS (VAS time 12 hours) | Pain scored by VAS (VAS time 15 hours) | Pain scored by VAS (VAS time 18 hours) | Pain scored by VAS (VAS time 21 hours) | Pain scored by VAS (VAS time 24 hours) |
| --- | --- | --- | --- | --- | --- | --- | --- | --- | --- |
| COc1cccc([C@@]2(O)CCCC[C@@H]2CN(C)C)c1 (racemic) [Treatment A, (±) cis-2-[(dimethylamino)methyl]-1-(3-methoxyphenyl)cyclo-hexanol hydrochloride] | 30.3 ± 21.2 mm | 22.3 ± 20.1 mm | 18.3 ± 20.6 mm | 15.3 ± 17.2 mm | 12.3 ± 21.2 mm | 14.3 ± 19.2 mm | 15.3 ± 21.3 mm | 14.3 ± 19.2 mm | 14.3 ± 19.2 mm |
| Cc1cnc(N/C(O)=C2/C(=O)c3ccccc3S(=O)(=O)N2C)s1 [Treatment B, 4-hydroxy-2-methyl-N-(5-methyl-2-thiazolyl)-2H-1,2-benzothiazine-3-carboxamide-1,1-dioxide] | 34 ± 19.1 mm | 18 ± 19.1 mm | 14 ± 21.1 mm | 14 ± 20.3 mm | 15 ± 18.6 mm | 17 ± 21.5 mm | 19 ± 19.7 mm | 20 ± 18.3 mm | 25 ± 20.9 mm |

Source: US20080026054A1, “Novel anelgesic combination” (NECTID INC., priority 2007, published 2008)
